Laboratory results published in US9527885B2, “Hepatitis C virus inhibitors” (BRISTOL-MYERS SQUIBB COMPANY, priority 2011, dated 2016).

Assays:
[1] = tested on: HCV genotype 1b (Con1) replicon in HUH-7 cells; test: HCV replicon luciferase reporter assay, genotype 1b; format: cell-based; conditions: Hepatitis C virus, 72 h, HCV genotype 1b replicon luciferase, 3 days incubation, range class, read-out: LE_1b (EC50, range)
In short: (§1)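 Twenty-point, threefold compound titrations (0.5% DMSO) were incubated 3 days at 37 °C with 3.0×10^3 HUH-7 cells/well in 4% FCS. The cells stably carried luciferase replicons: genotype 1b Con1 (S1179I) or 1a H77 (NS3 P1496L, NS5A S2204I). Renilla signal was read after 2 h with 7.5 μM EnduRen, and EC50 was taken from a four-parameter logistic fit. Cytotoxicity (CC50) was measured by Cell Titer-Blue, 8 h.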

[2] = tested on: HCV genotype 1a (H77 strain) replicon in HUH-7 cells; test: HCV replicon luciferase reporter assay, genotype 1a; format: cell-based; conditions: Hepatitis C virus, Huh-7, 72 h, HCV genotype 1a replicon luciferase, 3 days incubation, range class, read-out: LE_1a (EC50, range)
In short: as §1

C[C@@H]1CC/C=C\[C@@H]2C[C@@]2(C(=O)NS(=O)(=O)C2CC2)NC(=O)[C@@H]2C[C@@H](Oc3nc4ccccc4c4ccccc34)CN2C(=O)[C@@H](NC(=O)OC(C)(C)C(F)(F)F)[C@H](C)C1 [Compound 5185, 1,1,1-trifluoro-2-methylpropan-2-yl ((2R,6S,7R,9R,13aS,14aR,16aS,Z)-14a-((cyclopropylsulfonyl)carbamoyl)-7,9-dimethyl-5,16-dioxo-2-(phenanthridin-6-yloxy)-1,2,3,5,6,7,8,9,10,11,13a,14,14a,15,16,16a-hexadecahydrocyclopropa[e]pyrrolo[1,2-a][1,4]diazacyclopentadecin-6-yl)carbamate]
EC50 [1]: < 5.46 nM
EC50 [2]: < 5.46 nM

COc1ccc2c(O[C@@H]3C[C@H]4C(=O)N[C@]5(C(=O)NS(=O)(=O)C6CC6)C[C@H]5/C=C\CC[C@H](C)C[C@@H](C)[C@H](NC(=O)O[C@@H]5C[C@@H]6C[C@@H]6C5)C(=O)N4C3)nc(-c3ccc(N4CCOCC4)cc3)cc2c1 [Compound 5194, (1R,3r,5S)-bicyclo[3.1.0]hexan-3-yl ((2R,6S,7R,9S,13aS,14aR,16aS,Z)-14a-((cyclopropylsulfonyl)carbamoyl)-2-((6-methoxy-3-(4-morpholinophenyl)isoquinolin-1-yl)oxy)-7,9-dimethyl-5,16-dioxo-1,2,3,5,6,7,8,9,10,11,13a,14,14a,15,16,16a-hexadecahydrocyclopropa[e]pyrrolo[1,2-a][1,4]diazacyclopentadecin-6-yl)carbamate]
EC50 [1]: < 5.46 nM
EC50 [2]: < 5.46 nM

COc1ccc2c(O[C@@H]3C[C@H]4C(=O)N[C@]5(C(=O)NS(=O)(=O)C6CC6)C[C@H]5/C=C\CC[C@@H](C)C[C@@H](C)[C@H](NC(=O)O[C@@H]5C[C@@H]6C[C@@H]6C5)C(=O)N4C3)nc(-c3ccc(N4CCOCC4)cc3)cc2c1 [Compound 5195, (1R,3r,5S)-bicyclo[3.1.0]hexan-3-yl ((2R,6S,7R,9R,13aS,14aR,16aS,Z)-14a-((cyclopropylsulfonyl)carbamoyl)-2-((6-methoxy-3-(4-morpholinophenyl)isoquinolin-1-yl)oxy)-7,9-dimethyl-5,16-dioxo-1,2,3,5,6,7,8,9,10,11,13a,14,14a,15,16,16a-hexadecahydrocyclopropa[e]pyrrolo[1,2-a][1,4]diazacyclopentadecin-6-yl)carbamate]
EC50 [1]: < 5.46 nM
EC50 [2]: < 5.46 nM

COc1ccc2c(O[C@@H]3C[C@H]4C(=O)N[C@]5(C(=O)NS(=O)(=O)C6CC6)C[C@H]5/C=C\CC[C@H](C)C[C@@H](C)[C@H](NC(=O)O[C@@H]5C[C@@H]6C[C@@H]6C5)C(=O)N4C3)nc(-c3ccc(OC(C)C)cn3)cc2c1 [Compound 5208, (1R,3r,5S)-bicyclo[3.1.0]hexan-3-yl ((2R,6S,7R,9S,13aS,14aR,16aS,Z)-14a-((cyclopropylsulfonyl)carbamoyl)-2-((3-(5-isopropoxypyridin-2-yl)-6-methoxyisoquinolin-1-yl)oxy)-7,9-dimethyl-5,16-dioxo-1,2,3,5,6,7,8,9,10,11,13a,14,14a,15,16,16a-hexadecahydrocyclopropa[e]pyrrolo[1,2-a][1,4]diazacyclopentadecin-6-yl)carbamate]
EC50 [1]: < 5.46 nM
EC50 [2]: < 5.46 nM

COc1ccc2c(O[C@@H]3C[C@H]4C(=O)N[C@]5(C(=O)NS(=O)(=O)C6CC6)C[C@H]5/C=C\CC[C@@H](C)C[C@@H](C)[C@H](NC(=O)O[C@@H]5C[C@@H]6C[C@@H]6C5)C(=O)N4C3)nc(-c3ccc(OC(C)C)cn3)cc2c1 [Compound 5209, (1R,3r,5S)-bicyclo[3.1.0]hexan-3-yl ((2R,6S,7R,9R,13aS,14aR,16aS,Z)-14a-((cyclopropylsulfonyl)carbamoyl)-2-((3-(5-isopropoxypyridin-2-yl)-6-methoxyisoquinolin-1-yl)oxy)-7,9-dimethyl-5,16-dioxo-1,2,3,5,6,7,8,9,10,11,13a,14,14a,15,16,16a-hexadecahydrocyclopropa[e]pyrrolo[1,2-a][1,4]diazacyclopentadecin-6-yl)carbamate]
EC50 [1]: < 5.46 nM
EC50 [2]: < 5.46 nM

COc1ccc2c(O[C@@H]3C[C@H]4C(=O)N[C@]5(C(=O)NS(=O)(=O)C6CC6)C[C@H]5/C=C\CC[C@H](C)C[C@@H](C)[C@H](NC(=O)O[C@@H]5C[C@@H]6C[C@@H]6C5)C(=O)N4C3)nc(-c3ccc(OC(C)C)nc3)cc2c1 [Compound 5218, (1R,3r,5S)-bicyclo[3.1.0]hexan-3-yl ((2R,6S,7R,9S,13aS,14aR,16aS,Z)-14a-((cyclopropylsulfonyl)carbamoyl)-2-((3-(6-isopropoxypyridin-3-yl)-6-methoxyisoquinolin-1-yl)oxy)-7,9-dimethyl-5,16-dioxo-1,2,3,5,6,7,8,9,10,11,13a,14,14a,15,16,16a-hexadecahydrocyclopropa[e]pyrrolo[1,2-a][1,4]diazacyclopentadecin-6-yl)carbamate]
EC50 [1]: < 5.46 nM
EC50 [2]: < 5.46 nM

COc1ccc2c(O[C@@H]3C[C@H]4C(=O)N[C@]5(C(=O)NS(=O)(=O)C6CC6)C[C@H]5/C=C\CC[C@@H](C)C[C@@H](C)[C@H](NC(=O)O[C@@H]5C[C@@H]6C[C@@H]6C5)C(=O)N4C3)nc(-c3ccc(OC(C)C)nc3)cc2c1 [Compound 5219, (1R,3r,5S)-bicyclo[3.1.0]hexan-3-yl ((2R,6S,7R,9R,13aS,14aR,16aS,Z)-14a-((cyclopropylsulfonyl)carbamoyl)-2-((3-(6-isopropoxypyridin-3-yl)-6-methoxyisoquinolin-1-yl)oxy)-7,9-dimethyl-5,16-dioxo-1,2,3,5,6,7,8,9,10,11,13a,14,14a,15,16,16a-hexadecahydrocyclopropa[e]pyrrolo[1,2-a][1,4]diazacyclopentadecin-6-yl)carbamate]
EC50 [1]: < 5.46 nM
EC50 [2]: < 5.46 nM

COc1ccc2c(O[C@@H]3C[C@H]4C(=O)N[C@]5(C(=O)NS(=O)(=O)C6(C)CC6)C[C@H]5/C=C\CC[C@H](C)C[C@@H](C)[C@H](NC(=O)O[C@@H]5C[C@@H]6C[C@@H]6C5)C(=O)N4C3)nc(-c3ccc(OC(C)C)nc3)cc2c1 [Compound 5228, (1R,3r,5S)-bicyclo[3.1.0]hexan-3-yl ((2R,6S,7R,9S,13aS,14aR,16aS,Z)-2-((3-(6-isopropoxypyridin-3-yl)-6-methoxyisoquinolin-1-yl)oxy)-7,9-dimethyl-14a-(((1-methylcyclopropyl)sulfonyl)carbamoyl)-5,16-dioxo-1,2,3,5,6,7,8,9,10,11,13a,14,14a,15,16,16a-hexadecahydrocyclopropa[e]pyrrolo[1,2-a][1,4]diazacyclopentadecin-6-yl)carbamate]
EC50 [1]: < 5.46 nM
EC50 [2]: 4.82 to 103 nM

COc1ccc2c(O[C@@H]3C[C@H]4C(=O)N[C@]5(C(=O)NS(=O)(=O)C6(C)CC6)C[C@H]5/C=C\CC[C@@H](C)C[C@@H](C)[C@H](NC(=O)O[C@@H]5C[C@@H]6C[C@@H]6C5)C(=O)N4C3)nc(-c3ccc(OC(C)C)nc3)cc2c1 [Compound 5229, (1R,3r,5S)-bicyclo[3.1.0]hexan-3-yl ((2R,6S,7R,9R,13aS,14aR,16aS,Z)-2-((3-(6-isopropoxypyridin-3-yl)-6-methoxyisoquinolin-1-yl)oxy)-7,9-dimethyl-14a-(((1-methylcyclopropyl)sulfonyl)carbamoyl)-5,16-dioxo-1,2,3,5,6,7,8,9,10,11,13a,14,14a,15,16,16a-hexadecahydrocyclopropa[e]pyrrolo[1,2-a][1,4]diazacyclopentadecin-6-yl)carbamate]
EC50 [1]: < 5.46 nM
EC50 [2]: < 5.46 nM

C[C@H]1CC/C=C\[C@@H]2C[C@@]2(C(=O)NS(=O)(=O)C2CC2)NC(=O)[C@@H]2C[C@@H](Oc3nccc4c5c(ccc34)OC(F)(F)O5)CN2C(=O)[C@@H](NC(=O)O[C@@H]2C[C@@H]3C[C@@H]3C2)[C@H](C)C1 [Compound 5273, (1R,3r,5S)-bicyclo[3.1.0]hexan-3-yl ((2R,6S,7R,9S,13aS,14aR,16aS,Z)-14a-((cyclopropylsulfonyl)carbamoyl)-2-((2,2-difluoro-[1,3]dioxolo[4,5-f]isoquinolin-6-yl)oxy)-7,9-dimethyl-5,16-dioxo-1,2,3,5,6,7,8,9,10,11,13a,14,14a,15,16,16a-hexadecahydrocyclopropa[e]pyrrolo[1,2-a][1,4]diazacyclopentadecin-6-yl)carbamate]
EC50 [1]: 4.82 to 103 nM
EC50 [2]: 4.82 to 103 nM

C[C@@H]1CC/C=C\[C@@H]2C[C@@]2(C(=O)NS(=O)(=O)C2CC2)NC(=O)[C@@H]2C[C@@H](Oc3nccc4c5c(ccc34)OC(F)(F)O5)CN2C(=O)[C@@H](NC(=O)O[C@@H]2C[C@@H]3C[C@@H]3C2)[C@H](C)C1 [Compound 5274, (1R,3r,5S)-bicyclo[3.1.0]hexan-3-yl ((2R,6S,7R,9R,13aS,14aR,16aS,Z)-14a-((cyclopropylsulfonyl)carbamoyl)-2-((2,2-difluoro-[1,3]dioxolo[4,5-f]isoquinolin-6-yl)oxy)-7,9-dimethyl-5,16-dioxo-1,2,3,5,6,7,8,9,10,11,13a,14,14a,15,16,16a-hexadecahydrocyclopropa[e]pyrrolo[1,2-a][1,4]diazacyclopentadecin-6-yl)carbamate]
EC50 [1]: < 5.46 nM
EC50 [2]: < 5.46 nM

C[C@@H]1CC/C=C\[C@@H]2C[C@@]2(C(=O)NS(=O)(=O)C2(CF)CC2)NC(=O)[C@@H]2C[C@@H](Oc3nccc4c5c(ccc34)OCCO5)CN2C(=O)[C@@H](NC(=O)OC(C)(C)C)[C@H](C)C1 [Compound 5321, tert-butyl ((2R,6S,7R,9R,13aS,14aR,16aS,Z)-2-((2,3-dihydro-[1,4]dioxino[2,3-f]isoquinolin-7-yl)oxy)-14a-(((1-(fluoromethyl)cyclopropyl)sulfonyl)carbamoyl)-7,9-dimethyl-5,16-dioxo-1,2,3,5,6,7,8,9,10,11,13a,14,14a,15,16,16a-hexadecahydrocyclopropa[e]pyrrolo[1,2-a][1,4]diazacyclopentadecin-6-yl)carbamate]
EC50 [1]: < 5.46 nM
EC50 [2]: < 5.46 nM
